Measured values as given in patent publication US20150253330A1, “PRE-SELECTION OF SUBJECTS FOR THERAPEUTIC TREATMENT WITH AN HSP90 INHIBITOR BASED ON HYPOXIC STATUS” (Synta Pharmaceuticals Corp., priority 2012, published 2015).

Experiments:
SNU-1 = experiment: 72 hr viability by Syto60, gastric cell line; assay type: cell-based; conditions: Homo sapiens, SNU1, Syto60 (lower), read-out: ganetespib IC50
angiogenesis = experiment: Egg CAM and matrigel plug angiogenesis assays; parameters: species or system chicken; conditions: all three models
Method: The conditioned medium was collected from control and treated cells. 100 μl of conditioned medium, either control or treated, was injected into fertilized chicken eggs. Eggs were incubated at 37° C. for 15 days, then dissected and the membrane was photographed.
It's postulated that functional inhibition of Hsp90 by ganetespib can inhibit angiogenesis and growth in vitro and in vivo models of pancreatic cancer. PANC-1 and HPAC cell lines were treated with vehicle or G (50 nM) for 24 h and lysates were analyzed by Western blot. Egg CAM and matrigel plug assays were performed to quantify the effects of ganetespib on angiogenesis. Efficacy of ganetespib (100 mg/kg) was assessed in mice bearing HPAC and ASPC-1 xenograft.
Mia-PaCa2, PANC-1 and HPAC cells were treated with Ganetespib (50 nM) or control for 24 hours, the conditioned medium was harvested and 100 μl of conditioned or control medium was injected into fertilized chicken eggs (Avian Vaccine Service center, North Franklin, Conn.). Eggs were incubated at 37° C. for 15 days and dissected. Chorioallantoic membrane was photographed.

advanced GIST = experiment: Phase 2 study in gastrointestinal stromal tumors (GIST); assay type: in vivo, human
Method: Patients with advanced (e.g., metastatic or unresectable) GIST following failure of prior therapy, e.g., imatinib or sunitinib, received ganetespib (200 mg/m^2) as a 1 hour IV infusion once per week for 3 weeks of a 28 day cycle. GIST status was assessed at 8 weeks per RECIST, until progression. […] Hsp90 client protein levels were analyzed in biopsies pre-therapy and 24-48 h post-treatment with ganetespib in a subset of patients.

solid tumors = experiment: Phase I dose escalation study, twice-weekly administration in patients with solid tumors; assay type: in vivo, human
Method: An open-label Phase 1 dose-escalation study in subjects with solid tumors was performed. The first cohort consisted of three subjects who received 2 mg/m^2 of ganetespib during a 1-hour infusion 2 times per week (e.g., [Monday, Thursday] or [Tuesday, Friday]) for three consecutive weeks followed by a 1 week dose-free interval. The first infusion for the first three subjects was staggered by a minimum of 5 days between subjects. This staggered enrollment scheme was followed for the first cohort only. Subjects tolerating ganetespib continued treatment past week 8 until disease progression as long as the re-treatment criteria continued to be met.
Subsequent cohorts were originally planned to receive escalating doses of 4, 7, 10, 14, 19, 25, 33, 40, and 48 mg/m^2, provided that the previous dose was well-tolerated during cycle 1 (week 1-4). The dose escalation scheme was updated to 25, 50, 75 and 100 mg/m^2, provided that the previous dose was well-tolerated during cycle 1. Following the completion of enrollment at 50 mg/m^2 twice per week, subsequent cohorts were to be treated at 100 mg/m^2 (100% increase above prior dose) and 120 mg/m^2 (20% increase above prior dose), with further dose increments to be approximately 20% over the previous dose level, until the maximum tolerated dose (MTD) was determined. Enrollment was completed at 100 mg/m^2 and the next doses planned were 120 mg/m^2 and 144 mg/m^2.
There had to be at least three evaluable subjects in a cohort before dose escalation could occur. […] Once a subject experienced a DLT the cohort was expanded to six subjects. If only 1 of 6 subjects experienced a DLT, further dose escalation was allowed. However, if 2 of 3 or 2 of 6 subjects experienced a DLT, dose escalation terminated.
A subject's duration of participation included a 2-week screening period and two 4-week treatment cycles totaling approximately 10 weeks. However, at the investigator's discretion, subjects tolerating ganetespib continued treatment past week 8 until disease progression.
The subjects in this study had histologically- or cytologically-confirmed non-hematological malignancy that was metastatic or unresectable. The subjects were documented to be refractory to, or were not candidates for, current standard therapy.
Ganetespib was formulated using 90% v/v PEG 300 and 10% v/v Polysorbate 80 at a concentration of 8 mg/mL and was packaged in a Type I glass amber vial, stoppered with a Flurotec-coated stopper, and sealed. […] The formulation was further diluted with 5% dextrose for injection in infusion container (DEHP-free 500 mL) to a concentration range of 0.02 to 1.2 mg/mL and administered via infusion tubing (DEHP-free) with a 0.22 micron end filter over an hour to the patient. The dosing solution once prepared was administered within 3 hours. Eligible subjects received the drug during a 1-hour infusion 2 times per week for 3 consecutive weeks followed by a 1-week dose-free interval. The amount of ganetespib administered depended upon the cohort to which the subject was assigned and the subject's body surface area (BSA).
A person with triple negative breast cancer (with Stage III invasive ductal carcinoma) from Example 1 enrolled in a Phase I dose escalation study of ganetespib. The patient's disease had progressed on 7 prior chemotherapeutic regimens. The patient was administered 144 mg/m^2 of ganetespib twice-weekly for 3 weeks, followed by 1 week dose-free. […] After 4 cycles, there was a documented 31% reduction in target lesion size (partial response). The treatment was interrupted due to brain metastases treated with whole brain radiation, but treatment with ganetespib resumed in cycle 5.

[1] = test system: AGS (wt-p53 and mut-KRAS); experiment: 72 hr viability by CTG, gastric cancer cells; assay type: cell-based; conditions: viability by CTG (upper)
Method: (§1) Many of the oncoproteins associated with gastric cancer and Hsp90 client proteins including HER2, MET, RAS and the FGFR family. Ganetespib was evaluated for its effect on the growth of AGS (wt-p53 and mut-KRAS) and MKN45 (wt-p53, wt-KRAS, MET amplified) gastric cancer cells.

[2] = test system: MKN45 (wt-p53, wt-KRAS, MET amplified); experiment: 72 hr viability by CTG, gastric cancer cells; assay type: cell-based; conditions: Homo sapiens, MKN-45, viability by CTG (upper)
Method: as §1

[3] = 41 of 54 enrolled patients assessable for response
[4] = one TNBC patient, 144 mg/m^2 twice-weekly for 3 weeks, 1 week dose-free

CC(C)c1cc(-c2nnc(O)n2-c2ccc3c(ccn3C)c2)c(O)cc1O [ganetespib]
IC50 (SNU-1): 6 nM
Angiogenesis compared to vehicle (angiogenesis): reduced angiogenesis
Adverse events reported in >20% of patients (advanced GIST; 200 mg/m^2 once per week for 3 weeks of a 28 day cycle, generally NCI CTC grade 1-2): diarrhea, fatigue, nausea, vomiting, increased alkaline phosphatase, headache, insomnia, and abdominal pain
Evaluable patients with SD (advanced GIST; 4 SD 16 weeks, 8 SD≧8 weeks): 12/23
Client proteins in paired tumor biopsies (advanced GIST; biopsies from 4 patients, pre-therapy and 24-48 h post-treatment): did not show prolonged inhibition of activated KIT or its downstream pathways
Tolerability (advanced GIST; once-weekly dosing, no evidence of severe liver, ocular, cardiac or renal toxicity): well-tolerated
Confirmed partial responses, patient with melanoma (solid tumors; [3]): 1 patient
Confirmed partial responses, patient with triple negative breast cancer (solid tumors; [3]): 1 patient
Patients who achieved stable disease (solid tumors; [3]): 15 patients
Tolerability (solid tumors; one TNBC patient, 144 mg/m^2 twice-weekly): tolerated the treatment well with mild/moderate toxicities
Reduction in target lesion size after 4 cycles (partial response) (solid tumors; [4]): 31%
Response per RECIST after 2 cycles (solid tumors; [4]): stable disease
IC50 [1]: 1.5 nM
IC50 [2]: 0.5 nM
